Reference: ChEMBL document CHEMBL5356960, “Discovery of Selective and Orally Available Galectin-1 Inhibitors” (J Med Chem, 2023)
Activity calls are given as the source filed them. No cut-off for these calls is given here.

Legend:
Galectin-1 [1] = biological target: T1, Galectin-1 (Homo sapiens, UniProt P09382); assay: Binding affinity to human galectin 1 assessed as dissociation constant incubated for 30 mins in presence of TDGA probe by fluorescence polarization assay
Galectin-3 [2] = biological target: T2, Galectin-3 (Homo sapiens, UniProt P17931); assay: Binding affinity to human galectin-3 assessed as dissociation constant by fluorescence polarization assay
Galectin-1 [3] = biological target: T1, Galectin-1; assay: Binding affinity to galectin-1 (unknown origin) assessed as dissociation constant
Galectin-3 [4] = biological target: T2, Galectin-3; assay: Binding affinity to galectin-3 (unknown origin) assessed as dissociation constant
[5] = Cytotoxicity against human A549 cells assessed as inhibition of cell growth incubated for 72 hrs by MTT assay; assay type: toxicity, cell-based
[6] = Lipophilicity, logD of compound at pH 7.4 preincubated with octanol for 5 mins followed by phosphate buffer addition and measured after 1 hrs by shakeflask method based LC-MS/MS analysis; assay type: physicochemical; settings: time 65 min
[7] = Apparent permeability from apical to basolateral side in human Caco-2 cells at 10 uM incubated for 90 mins by LC-MS/MS analysis; assay type: ADME, cell-based
[8] = Apparent permeability from basolateral to apical side in human Caco-2 cells at 10 uM incubated for 90 mins by LC-MS/MS analysis; assay type: ADME, cell-based
[9] = Metabolic stability in human hepatocytes assessed as intrinsic clearance measured per 10^6 cells at 2 uM incubated for 15 to 120 mins by LC-MS/MS analysis; assay type: ADME, cell-based, Hepatocyte; settings: time 15-120 min, read-out: CLH
[10] = Metabolic stability in mouse hepatocytes assessed as intrinsic clearance measured per 10^6 cells at 2 uM incubated for 15 to 120 mins by LC-MS/MS analysis; assay type: ADME, cell-based, Hepatocyte; settings: time 15-120 min, read-out: CLH
[11] = Protein binding in human plasma assessed as unbound fraction at 2 uM incubated for 5 hrs by equilibrium dialysis based LC-MS/MS analysis; assay type: ADME, cell-free
[12] = Protein binding in mouse plasma assessed as unbound fraction at 2 uM incubated for 5 hrs by equilibrium dialysis based LC-MS/MS analysis; assay type: ADME, cell-free
Galectin-4 [13] = biological target: T3, Galectin-4 (Homo sapiens, UniProt P56470); assay: Binding affinity to N-terminal human Galectin-4 assessed as dissociation constant by fluorescence polarization assay
T3 sequence (P56470 whole entry): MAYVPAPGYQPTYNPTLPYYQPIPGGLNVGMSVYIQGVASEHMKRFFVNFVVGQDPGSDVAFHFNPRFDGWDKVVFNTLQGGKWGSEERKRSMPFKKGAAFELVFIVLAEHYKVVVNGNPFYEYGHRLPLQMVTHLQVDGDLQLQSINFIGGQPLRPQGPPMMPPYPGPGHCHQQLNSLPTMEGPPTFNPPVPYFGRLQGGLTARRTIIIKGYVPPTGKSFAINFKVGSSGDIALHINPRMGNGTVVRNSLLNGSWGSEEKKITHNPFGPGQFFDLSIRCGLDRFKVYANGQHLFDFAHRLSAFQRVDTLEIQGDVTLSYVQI

Galectin-4 [14] = biological target: T3, Galectin-4; assay: Binding affinity to C-terminal human Galectin-4 assessed as dissociation constant by fluorescence polarization assay
Galectin-7 = Galectin-7 (Homo sapiens, UniProt P47929); assay: Binding affinity to human Galectin-7 assessed as dissociation constant by fluorescence polarization assay
Galectin-8 [15] = biological target: T4, Galectin-8 (Homo sapiens, UniProt O00214); assay: Binding affinity to N-terminal human Galectin-8 assessed as dissociation constant by fluorescence polarization assay
T4 sequence (O00214 whole entry): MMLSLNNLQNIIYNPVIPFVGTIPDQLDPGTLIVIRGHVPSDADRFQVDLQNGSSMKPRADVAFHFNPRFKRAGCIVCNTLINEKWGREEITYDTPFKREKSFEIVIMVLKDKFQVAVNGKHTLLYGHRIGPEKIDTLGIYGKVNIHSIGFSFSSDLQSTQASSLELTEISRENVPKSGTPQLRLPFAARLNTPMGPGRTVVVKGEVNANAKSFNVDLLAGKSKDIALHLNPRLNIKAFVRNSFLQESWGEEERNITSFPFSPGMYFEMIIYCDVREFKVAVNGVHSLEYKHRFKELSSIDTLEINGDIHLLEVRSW

Galectin-8 [16] = biological target: T4, Galectin-8; assay: Binding affinity to C-terminal human Galectin-8 assessed as dissociation constant by fluorescence polarization assay
Galectin-9 [17] = biological target: T5, Galectin-9 (Homo sapiens, UniProt O00182); assay: Binding affinity to N-terminal human Galectin-9 assessed as dissociation constant by fluorescence polarization assay
Galectin-9 [18] = biological target: T5, Galectin-9; assay: Binding affinity to C-terminal human Galectin-9 assessed as dissociation constant by fluorescence polarization assay
Galectin-1 [19] = biological target: T6, Galectin-1 (Mus musculus, UniProt P16045); assay: Binding affinity to mouse Galectin-1 assessed as dissociation constant incubated for 30 mins in the presence of TDGA probe by fluorescence polarization assay
Galectin-3 [20] = biological target: T7, Galectin-3 (Mus musculus, UniProt P16110); assay: Binding affinity to mouse Galectin-3 assessed as dissociation constant by fluorescence polarization assay
Galectin-1 [21] = biological target: T1, Galectin-1; assay: Binding affinity to human galectin-1 assessed as dissociation constant by SPR analysis
Galectin-1 [22] = biological target: T6, Galectin-1; assay: Binding affinity to mouse full-length galectin-1 assessed as dissociation constant by SPR analysis
Galectin-3 [23] = biological target: T2, Galectin-3; assay: Binding affinity to human galectin-3 assessed as dissociation constant by SPR analysis
Galectin-3 [24] = biological target: T7, Galectin-3; assay: Binding affinity to mouse full-length galectin-3 assessed as dissociation constant by SPR analysis
A549 = assay: Cytotoxicity against human A549 cells assessed as reduction in cell viability incubated for 72 hrs by MTT assay relative to control; assay type: toxicity, cell-based; settings: a549, 72 h
Jurkat [25] = assay: Inhibition of galectin-1 induced apoptosis in human Jurkat T cells assessed as reduction in caspase-3 activation incubated for 24 hrs by CellEvent caspase-3/7 green fluorescent detection reagent based imaging analysis
[26] = Clearance in C57BL/6 mouse at 1 mg/kg, iv measured upto 8 hrs by HPLC analysis; assay type: ADME, organism-based; settings: in vivo
[27] = Volume of distribution at steady state in C57BL/6 mouse at 1 mg/kg, iv measured upto 8 hrs by HPLC analysis; assay type: ADME, organism-based; settings: in vivo, read-out: Vdss
[28] = Tmax in C57BL/6 mouse at 10 mg/kg, po or 1 mg/kg, iv by HPLC analysis; assay type: ADME, organism-based; settings: in vivo
[29] = Cmax in C57BL/6 mouse at 10 mg/kg, po or 1 mg/kg, iv by HPLC analysis; assay type: ADME, organism-based; parameters: dose 10 mg/kg, route po; settings: in vivo
[30] = AUCinfinity in C57BL/6 mouse at 10 mg/kg, po or 1 mg/kg, iv by HPLC analysis; assay type: ADME, organism-based; parameters: dose 10 mg/kg, route po; settings: in vivo
[31] = Oral bioavailability in C57BL/6 mouse at 10 mg/kg measured upto 24 hrs by HPLC analysis; assay type: ADME, organism-based; settings: in vivo
Jurkat [32] = assay: Inhibition of galectin-1 induced apoptosis in human Jurkat T cells assessed as reduction in caspase-3 activation upto 24 uM incubated for 24 hrs by CellEvent caspase-3/7 green fluorescent detection reagent based imaging analysis; assay type: functional, cell-based

T1 sequence (P09382 whole entry): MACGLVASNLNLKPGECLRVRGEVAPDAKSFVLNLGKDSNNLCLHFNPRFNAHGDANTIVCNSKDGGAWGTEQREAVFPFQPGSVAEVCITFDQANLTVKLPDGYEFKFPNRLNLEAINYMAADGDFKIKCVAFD
T2 sequence (P17931 whole entry): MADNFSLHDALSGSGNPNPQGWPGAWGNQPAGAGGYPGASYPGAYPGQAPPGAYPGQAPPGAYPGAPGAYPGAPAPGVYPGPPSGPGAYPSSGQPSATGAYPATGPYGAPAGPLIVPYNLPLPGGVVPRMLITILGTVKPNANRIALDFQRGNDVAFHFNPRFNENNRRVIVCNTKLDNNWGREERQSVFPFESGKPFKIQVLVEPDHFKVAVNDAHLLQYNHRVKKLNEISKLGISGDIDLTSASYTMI
T5 sequence (O00182 whole entry): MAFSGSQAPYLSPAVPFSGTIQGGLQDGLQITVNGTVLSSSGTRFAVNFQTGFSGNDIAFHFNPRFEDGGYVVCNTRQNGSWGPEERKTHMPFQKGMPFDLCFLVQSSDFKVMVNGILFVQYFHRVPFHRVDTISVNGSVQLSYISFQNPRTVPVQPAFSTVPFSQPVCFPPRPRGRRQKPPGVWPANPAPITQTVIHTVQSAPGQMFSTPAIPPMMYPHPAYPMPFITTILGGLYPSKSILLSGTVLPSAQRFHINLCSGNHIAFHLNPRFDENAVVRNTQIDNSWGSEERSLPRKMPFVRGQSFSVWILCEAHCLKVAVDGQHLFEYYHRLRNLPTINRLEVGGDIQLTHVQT
T7 sequence (P16110 whole entry): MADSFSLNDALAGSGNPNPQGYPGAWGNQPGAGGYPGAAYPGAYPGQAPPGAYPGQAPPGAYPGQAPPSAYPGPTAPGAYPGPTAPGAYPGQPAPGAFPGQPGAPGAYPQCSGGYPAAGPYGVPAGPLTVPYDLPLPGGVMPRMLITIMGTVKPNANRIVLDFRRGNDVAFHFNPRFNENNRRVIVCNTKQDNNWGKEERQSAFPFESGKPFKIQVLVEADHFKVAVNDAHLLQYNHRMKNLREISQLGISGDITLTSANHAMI
T6 sequence (P16045 whole entry): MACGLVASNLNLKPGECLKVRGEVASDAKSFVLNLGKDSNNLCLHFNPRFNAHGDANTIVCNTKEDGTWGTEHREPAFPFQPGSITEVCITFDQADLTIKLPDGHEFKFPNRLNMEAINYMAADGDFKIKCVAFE
Sequence of Galectin-7 (P47929 whole entry): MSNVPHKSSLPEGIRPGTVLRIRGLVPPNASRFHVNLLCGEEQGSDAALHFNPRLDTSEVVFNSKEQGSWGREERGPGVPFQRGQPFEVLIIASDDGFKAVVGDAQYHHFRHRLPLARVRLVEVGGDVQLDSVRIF

## OC[C@H]1O[C@H](Sc2cc(Cl)c(F)c(Cl)c2)[C@H](O)[C@@H](n2cc(-c3cccs3)nn2)[C@H]1O
Galectin-1 [1]
  Kd: 970 nM
Galectin-3 [2]
  Kd: 1500 nM

## OC[C@H]1O[C@@H](S[C@@H]2O[C@H](CO)[C@H](O)[C@H](n3cc(-c4ccsc4)nn3)[C@H]2O)[C@H](O)[C@@H](n2cc(-c3ccsc3)nn2)[C@H]1O
Galectin-1 [3]
  Kd: < 10 nM
Galectin-3 [4]
  Kd: 65 nM

## OC[C@H]1O[C@H](Sc2cc(Cl)c(F)c(Cl)c2)[C@H](O)[C@@H](n2cc(-c3nccs3)nn2)[C@H]1O
[5]
  IC50 at 72 h: > 90000 nM
[6]
  logD at 1 h: 3.1
Galectin-1 [1]
  Kd: 410 nM
Galectin-3 [2]
  Kd: 2700 nM
[7]
  Papp A→B at 1.5 h, 10 µM: 11 ×10⁻⁶ cm/s
[8]
  Papp B→A at 1.5 h, 10 µM: 31 ×10⁻⁶ cm/s
[9]
  hepatocyte CLint at 2 µM: < 1 µL/min/1e6 cells
[10]
  hepatocyte CLint at 2 µM: < 1.5 µL/min/1e6 cells
[11]
  fraction unbound at 5 h, 2 µM: 0.038
[12]
  fraction unbound at 5 h, 2 µM: 0.013
Galectin-4 [13]
  Kd: 37000 nM
Galectin-4 [14]
  Kd: 2500 nM
Galectin-7
  Kd: 60000 nM
Galectin-8 [15]
  Kd: 65000 nM
Galectin-8 [16]
  Kd: 130000 nM
Galectin-9 [17]
  Kd: 16000 nM
Galectin-9 [18]
  Kd: 23000 nM
Galectin-1 [19]
  Kd: 230 nM
Galectin-3 [20]
  Kd: 5800 nM
Galectin-1 [21]
  Kd: 644 nM
Galectin-1 [22]
  Kd: 363 nM
Galectin-3 [23]
  Kd: 62600 nM
Galectin-3 [24]
  Kd: 70400 nM
A549
  Activity: 46.6%
Jurkat [25]
  IC50: 2300 nM
[26]
  clearance: 7.5 mL/min/kg
[27]
  Vd: 0.4 L/kg
[28]
  Tmax: 30 min
[29]
  Cmax: 6900 ng/mL
[30]
  AUC(0-inf): 3200 ng·h/mL
[31]
  bioavailability: > 99%

## OC[C@H]1O[C@H](Sc2ccc(Cl)c(Cl)c2)[C@H](O)[C@@H](n2cc(-c3ncsn3)nn2)[C@H]1O
Galectin-1 [1]
  Kd: 2000 nM
Galectin-3 [2]
  Kd: 3400 nM

## OC[C@H]1O[C@H](Sc2ccc(Cl)c(Cl)c2)[C@H](O)[C@@H](n2cc(-c3cscn3)nn2)[C@H]1O
[6]
  logD at 1 h: > 4
Galectin-1 [1]
  Kd: 350 nM
Galectin-3 [2]
  Kd: 8000 nM
[7]
  Papp A→B at 1.5 h, 10 µM: 6 ×10⁻⁶ cm/s
[8]
  Papp B→A at 1.5 h, 10 µM: 50 ×10⁻⁶ cm/s
[9]
  hepatocyte CLint at 2 µM: 1.1 µL/min/1e6 cells
[10]
  hepatocyte CLint at 2 µM: < 1.5 µL/min/1e6 cells
[11]
  fraction unbound at 5 h, 2 µM: 0.068
[12]
  fraction unbound at 5 h, 2 µM: 0.033

## OC[C@H]1O[C@H](Sc2cncc(Br)c2)[C@H](O)[C@@H](n2cc(-c3ccsc3)nn2)[C@H]1O
[6]
  logD at 1 h: 2
Galectin-1 [1]
  Kd: 680 nM
Galectin-3 [2]
  Kd: 1700 nM
[7]
  Papp A→B at 1.5 h, 10 µM: 4.5 ×10⁻⁶ cm/s
[8]
  Papp B→A at 1.5 h, 10 µM: 31 ×10⁻⁶ cm/s

## CN(C)CCNC(=O)COc1c2cccc1Cc1cccc(c1OCC(=O)NCCN(C)C)Cc1cccc(c1OCC(=O)NCCN(C)C)Cc1cccc(c1OCC(=O)NCCN(C)C)C2
Jurkat [32]
  inhibition: inactive

## OC[C@H]1O[C@H](Sc2cc(Cl)c(F)c(Cl)c2)[C@H](O)[C@@H](n2cc(-c3cscn3)nn2)[C@H]1O
[6]
  logD at 1 h: 2.9
Galectin-1 [1]
  Kd: 330 nM
Galectin-3 [2]
  Kd: 2900 nM
[7]
  Papp A→B at 1.5 h, 10 µM: 9 ×10⁻⁶ cm/s
[8]
  Papp B→A at 1.5 h, 10 µM: 30 ×10⁻⁶ cm/s
[9]
  hepatocyte CLint at 2 µM: < 1 µL/min/1e6 cells
[10]
  hepatocyte CLint at 2 µM: < 1.5 µL/min/1e6 cells
[11]
  fraction unbound at 5 h, 2 µM: 0.033
[12]
  fraction unbound at 5 h, 2 µM: 0.015

## OC[C@H]1O[C@H](Sc2ccc(Cl)c(Cl)c2)[C@H](O)[C@@H](n2cc(-c3nncs3)nn2)[C@H]1O
Galectin-1 [1]
  Kd: 1700 nM
Galectin-3 [2]
  Kd: 1300 nM

## OC[C@H]1O[C@H](Sc2ccc(Cl)c(Cl)c2)[C@H](O)[C@@H](n2cc(-c3ccsc3)nn2)[C@H]1O
[6]
  logD at 1 h: 3.6
Galectin-1 [1]
  Kd: 280 nM
Galectin-3 [2]
  Kd: 2100 nM
[7]
  Papp A→B at 1.5 h, 10 µM: 10 ×10⁻⁶ cm/s
[8]
  Papp B→A at 1.5 h, 10 µM: 18 ×10⁻⁶ cm/s
[9]
  hepatocyte CLint at 2 µM: 4.9 µL/min/1e6 cells
[10]
  hepatocyte CLint at 2 µM: 15 µL/min/1e6 cells
[11]
  fraction unbound at 5 h, 2 µM: 0.014
[12]
  fraction unbound at 5 h, 2 µM: 0.015

## OC[C@H]1O[C@H](Sc2ccc(Cl)c(Cl)c2)[C@H](O)[C@@H](n2cc(-c3ncco3)nn2)[C@H]1O
Galectin-1 [1]
  Kd: 2700 nM
Galectin-3 [2]
  Kd: 11000 nM

## OC[C@H]1O[C@H](Sc2ccc(Cl)c(Cl)c2)[C@H](O)[C@@H](n2cc(-c3cc(F)c(F)c(F)c3)nn2)[C@H]1O
[7]
  Papp A→B at 1.5 h, 10 µM: 19 ×10⁻⁶ cm/s
[8]
  Papp B→A at 1.5 h, 10 µM: 20 ×10⁻⁶ cm/s

## OC[C@H]1O[C@H](Sc2ccc(Cl)c(Cl)c2)[C@H](O)[C@@H](n2cc(-c3ncc[nH]3)nn2)[C@H]1O
[6]
  logD at 1 h: 2.3
Galectin-1 [1]
  Kd: 640 nM
Galectin-3 [2]
  Kd: 2100 nM
[7]
  Papp A→B at 1.5 h, 10 µM: 0.4 ×10⁻⁶ cm/s
[8]
  Papp B→A at 1.5 h, 10 µM: 25 ×10⁻⁶ cm/s

## OC[C@H]1O[C@H](Sc2cc(Cl)c(F)c(Cl)c2)[C@H](O)[C@@H](n2cc(-c3cncs3)nn2)[C@H]1O
Galectin-1 [1]
  Kd: 22000 nM
Galectin-3 [2]
  Kd: 3000 nM
